Laboratory results as given in patent US11124779B2, “Compositions and methods for treating and preventing pancreatitis, renal injury and cancer” (Yale University, priority 2014, dated 2021).
Where a SMILES comes first, the peptide text is derived from it. Where no end group is shown, it is not given here.

Assays:
HK-2 cells [1] = conditions: Wang et al., 2014; cited from earlier work
MAPK signaling = conditions: Wang et al., 2014; cited from earlier work
HK-2 cells [2] = test: In vitro model of cisplatin toxicity: HK-2 cell survival by the WST-1 method; format: cell-based, human
Experimental: FIG. 1B is a graph depicting the effect of renalase peptides on survival of HK-2 cells exposed to 20 μM cisplatin for 24 hrs; cell survival is depicted as % change in survival compared to that in cisplatin-treated HK-2 cells without renalase peptides; cell survival was measured by the WST-1 method; RP-A220: mutated RP-220, and RP-19 and RP-128: control peptides; peptide concentration (μg/ml) indicated in top line; n=4, *=p<0.05. […]
HK-2 cells (human proximal tubular line) obtained from ATTC (Manassas, Va., USA) were cultured in DMEM/F12 supplemented with glutamine, 10% FBS and antibiotics, and were maintained at 37° C. in 5% CO2. Cells were exposed to cisplatin (20 μM) in the presence or absence of recombinant renalase or renalase peptides for 24 hrs, and cell viability was assessed by the WST1 method (Roche Applied Science, Germany).

HK-2 cells [3] = test: as above; format: cell-based, human; conditions: control conditions, no cisplatin
p38 MAPK = test: MAPK signaling by immunoblot: p38 phosphorylation in HK-2 cells; format: cell-based, human; conditions: cisplatin alone, 1-60 min
Description: (§1) FIGS. 2A-2C, depict how RP-220 alters the pattern of MAPK activation in cisplatin treated cells. FIG. 2A is an image of a gel depicting MAPK phosphorylation with cisplatin alone (CP) and with CP and RP-220; representative study: p-p38: phosphorylated p38 MAPK; p-ERK: phosphorylated ERK. FIG. 2B is a graph depicting quantification of ERK activation. Signals were normalized to glyceraldehyde 3-phosphate dehydrogenase (GAPDH) loading control; n=3, *=P<0.05. FIG. 2C is a graph depicting quantification of p38 activation, signals normalized to GAPDH loading control; n=3, *=P<0.05.
(§2) FIGS. 5A-5E, depict how PMCA4b inhibition abrogates renalase peptide mediated MAPK signaling and cytoprotection. […] is a series of panels depicting how PMCA4b inhibition abrogates RP-220 mediated ERK and p38 signaling in HK-2 cells; caloxin1b=peptide inhibitor of PMCA4; left panel: RP-220 mediated ERK and p38 activation, phospho=phosphorylated, representative blot; middle panel: inhibition of RP-220 mediated ERK and p38 activation by caloxin1b (100 μM); right panel: quantification of phosphorylated p38 (P-p38) and phosphorylated ERK (p-ERK); signals were normalized to glyceraldehyde 3-phosphate dehydrogenase (GAPDH) loading control; n=3, *=P<0.05. […]

ERK = test: MAPK signaling by immunoblot: ERK phosphorylation in HK-2 cells; format: cell-based, human; conditions: cisplatin alone, 1-60 min
Description: as §1, §2

[4] = 20 μM cisplatin, 24 hrs, WST-1, range of peptide concentrations

RP-Scr220: scrambled RP-220 control peptide, SEQ ID NO: 7, CSKRIFKVISSIEDNNERG (listed as Homo sapiens)
protection of cells (HK-2 cells [1]): failed to protect cells | activation of MAPK signaling (MAPK signaling): did not activate MAPK signaling

RP-19: control renalase peptide, SEQ ID NO: 1, LLRRQTSGPLYLAVWDKAED, acetylated at the amino terminus (Ac-LLRRQTSGPLYLAVWDKAED; listed as Homo sapiens)
survival of HK-2 cells exposed to cisplatin (protective effect) (HK-2 cells [2]; [4]): did not improve cell survival

CC[C@H](C)[C@H](NC(=O)[C@H](CCC(=O)O)NC(=O)[C@H](CO)NC(=O)[C@H](CO)NC(=O)[C@H](CCC(=O)O)NC(=O)[C@@H](NC(=O)[C@H](CC(N)=O)NC(=O)[C@H](CCCNC(=N)N)NC(=O)[C@H](CCCCN)NC(=O)[C@H](CCCCN)NC(=O)[C@H](CC(N)=O)NC(=O)[C@H](CC(=O)O)NC(=O)[C@@H](NC(=O)[C@H](CO)NC(=O)[C@@H](NC(=O)[C@H](Cc1ccccc1)NC(=O)[C@H](CCCNC(=N)N)NC(=O)[C@@H](NC(=O)[C@H](CS)NC(C)=O)[C@@H](C)CC)C(C)C)[C@@H](C)CC)[C@@H](C)CC)C(=O)NCC(=O)O [RP-220] (Ac-CIRFVSIDNKKRNIESSEIG-OH)
protective effect against cisplatin cytotoxicity after down-regulation of PMCA4b expression (HK-2 cells [2]; HK-2 cells, PMCA4b siRNA, 20 μM cisplatin 24 hrs, peptide 15 μg/ml): abrogated | relative potency at protecting HK-2 cells against cisplatin cytotoxicity (concentration dependent effects) (HK-2 cells [2]; dose response curve, 20 μM cisplatin, 24 hrs): equipotent

RP-128: control renalase peptide, SEQ ID NO: 2, FRHRVTQINLRDDKWEVSKQ, acetylated at the amino terminus (Ac-FRHRVTQINLRDDKWEVSKQ; listed as Homo sapiens)
survival of HK-2 cells exposed to cisplatin (protective effect) (HK-2 cells [2]; [4]): did not improve cell survival

C[S+]([O-])c1ccc(-c2nc(-c3ccncc3)c(-c3ccc(F)cc3)[nH]2)cc1 (stereo not shown) [SB203580, 4-[4′-Fluorophenyl]-2-[4′-methylsulfinylphenyl]-5-[4′-pyridyl]-imidazole, reference compound]
effect of kinase inhibitor on protection by RP-220 against cisplatin (HK-2 cells [2]; HK-2 cells, 20 μM cisplatin 24 hrs plus RP-220, SB203580 10 μM): completely abrogated | survival of HK-2 cells with inhibitor alone (HK-2 cells [3]): did not adversely affect the survival

RP-A220: mutated RP-220, SEQ ID NO: 6, IRFVSIDNAAANIESSEIG (listed as Homo sapiens)
survival of HK-2 cells exposed to cisplatin (protective effect) (HK-2 cells [2]; [4]): did not improve cell survival | survival of HK-2 cells exposed to cisplatin (protective effect) (HK-2 cells [2]; 20 μM cisplatin, 24 hrs, test substance 80 μg/ml): exacerbated cisplatin toxicity

RP-224: renalase peptide, SEQ ID NO: 3, CVSIDNKKRNI, acetylated at the amino terminus (Ac-CVSIDNKKRNI; listed as Homo sapiens)
survival of HK-2 cells exposed to cisplatin (protective effect) (HK-2 cells [2]; 20 μM cisplatin, 24 hrs, test substance 100 μg/ml): protected HK-2 cells to a similar degree

N.N.[Cl][Pt][Cl] [Cisplatin, cisplatin]
p38 phosphorylation (p38 MAPK): modestly increased | ERK phosphorylation (ERK): modestly increased
